According to patent EP0064487A1, “New substituted 3-(parasubstituted)phenoxy-1-alkylamino-propanol-2-s, as well as process for their preparation, pharmaceutical preparations containing same, and method for treating cardiac failure” (priority 1981, dated 1982):

Columns and labels:
[1] = test system: contractility of the heart; test: Positive inotropic effect (increase in max dP/dt) in reserpine-pretreated, anaesthetized cats, i.v. dosing; format: in vivo; conditions: continuous infusion
Experimental: The positive inotropic effect and the cardioselectivity of the compounds were studied in cats with an average weight of 3 kg. The animals were pretreated with reserpine (5 mg/kg i.p.) about 16 hours before experiment. This treatment eliminated the reflex sympathetic control of the heart and the vascular tonus. Following pentobarbital anaesthesia (Mebumal^e, 30 mg/kg i.p.) artificial air respiration was started. The two vagus nerves were cut and the adrenal glands were excluded from the circulation by means of ligatures on the adrenal veins.
Blood pH, pC02 and p02 were kept within the normal ranges throughout the experiments. All recordings were made on a Grass Polygraph. Heart rate, pressure in the left ventricle (LVP), the first derivative of LVP (dP/dt), intra-arterial blood pressure and peripheral resistance were recorded. LVP was recorded via a catheter tip pressure transducer (Millar), which was inserted via the left carotid artery. This.pressure curve was differentiated and max dP/dt was recorded by means of a peak detector. The recording of max dP/dt was linear up to 20 […]. The increase in max dP/dt was used as a measure of the increased contractility of the heart.
The substances were administered intravenously in increasing doses. […]

[2] = test system: inotropic effect (max dF/dt) in the aorta; test: Duration of positive inotropic action (decline of max dF/dt in the aorta) in conscious dogs, i.v. dosing; format: in vivo; conditions: conscious beagle dogs, intravenous
Experimental: The duration of action of the compounds has been studied in conscious beagle dogs. An electromagnetic flow probe was inplanted on the ascending aorta for determination of the r inotropic effect measured as maximal flow acceleration (max dF/dt) in the aorta. For determination of blood pressure catheters were inplanted in thoracic aorta and .left atrium. Increasing doses of the substances were administered intravenously and the decline of inotropic effect (max dF/dt) was used for determination of duration.

## CC(C)NCC(O)c1ccc(O)c(O)c1 (centres unmarked) [isoprenaline]
[1]
  Half maximal effect: 0.004 µmol/kg/min
[2]
  time for 50% decline of the positive inotropic effect (max dF/dt): less than 1 min
